Organism: Rattus norvegicus
Test: DrugMatrix - Regimen: Daily Repeat
Assay type: toxicity, organism-based, Sprague-Dawley
Set-up: regimen Daily Repeat, gender Male, age 6-8 weeks
Conditions: in vivo, po, route oral GAVAGE, vehicle .5 % CMC; for BASOPHIL / EOSINOPHIL / ERYTHROCYTE COUNT / HEMATOCRIT / HEMOGLOBIN / LEUKOCYTE COUNT / LYMPHOCYTE / MEAN CORPUSCULAR HEMOGLOBIN / MEAN CORPUSCULAR HEMOGLOBIN CONCENTRATION / MEAN CORPUSCULAR VOLUME / NEUTROPHIL / PLATELET COUNT: tissue Blood; for ALANINE AMINOTRANSFERASE / ALBUMIN / ALKALINE PHOSPHATASE / ASPARTATE AMINOTRANSFERASE / BLOOD UREA NITROGEN / CHLORIDE / CHOLESTEROL / CREATINE PHOSPHOKINASE / CREATININE / GLUCOSE / PHOSPHORUS / POTASSIUM / SODIUM / TOTAL BILIRUBIN / TOTAL PROTEIN: tissue Plasma
[1] = 0 mg/kg, 72 h, dose level Control, time 3 day
[2] = 0 mg/kg, 120 h, dose level Control, time 5 day
[3] = 22 mg/kg, 72 h, dose level High, time 3 day
[4] = 22 mg/kg, 120 h, dose level High, time 5 day
[5] = […], 72 h, dose 2.4 mg/Kg, dose level Low, time 3 day
[6] = […], 120 h, dose 2.4 mg/Kg, dose level Low, time 5 day

## Cc1nc2n(c(=O)c1CCN1CCC(c3noc4cc(F)ccc34)CC1)CCCC2 [RISPERIDONE]
[1]
  BASOPHIL: 0%
  EOSINOPHIL: 0%
  ERYTHROCYTE COUNT: 6.19 x10E6/uL
  HEMATOCRIT: 36.94%
  HEMOGLOBIN: 14.58 G/DL
  LEUKOCYTE COUNT: 11.54 x10E3/uL
  LYMPHOCYTE: 84.8%
  MEAN CORPUSCULAR HEMOGLOBIN: 23.58 pg
  MEAN CORPUSCULAR HEMOGLOBIN CONCENTRATION: 39.44 G/DL
  MEAN CORPUSCULAR VOLUME: 59.76 fL
  NEUTROPHIL: 13.8%
  PLATELET COUNT: 1068.8 x10E3/uL
  ALANINE AMINOTRANSFERASE: 38.17 u/L
  ALBUMIN: 3.88 G/DL
  ALKALINE PHOSPHATASE: 391.33 u/L
  ASPARTATE AMINOTRANSFERASE: 69.83 u/L
  BLOOD UREA NITROGEN: 15 mg/dL
  CHLORIDE: 104.17 MEQ/L
  CHOLESTEROL: 72.17 mg/dL
  CREATINE PHOSPHOKINASE: 174.33 u/L
  CREATININE: 0.58 mg/dL
  GLUCOSE: 192.67 mg/dL
  PHOSPHORUS: 10.52 mg/dL
  POTASSIUM: 6.8 MEQ/L
  SODIUM: 149.67 MEQ/L
  TOTAL BILIRUBIN: 0.78 mg/dL
  TOTAL PROTEIN: 6.28 G/DL
[2]
  BASOPHIL: 0%
  EOSINOPHIL: 0.17%
  ERYTHROCYTE COUNT: 6.72 x10E6/uL
  HEMATOCRIT: 40.02%
  HEMOGLOBIN: 15.83 G/DL
  LEUKOCYTE COUNT: 9.5 x10E3/uL
  LYMPHOCYTE: 87.17%
  MEAN CORPUSCULAR HEMOGLOBIN: 23.57 pg
  MEAN CORPUSCULAR HEMOGLOBIN CONCENTRATION: 39.62 G/DL
  MEAN CORPUSCULAR VOLUME: 59.55 fL
  NEUTROPHIL: 11%
  PLATELET COUNT: 1053.67 x10E3/uL
  ALANINE AMINOTRANSFERASE: 26.33 u/L
  ALBUMIN: 4.02 G/DL
  ALKALINE PHOSPHATASE: 316.67 u/L
  ASPARTATE AMINOTRANSFERASE: 61.33 u/L
  BLOOD UREA NITROGEN: 18.67 mg/dL
  CHLORIDE: 108 MEQ/L
  CHOLESTEROL: 65.17 mg/dL
  CREATINE PHOSPHOKINASE: 161.17 u/L
  CREATININE: 0.75 mg/dL
  GLUCOSE: 177.33 mg/dL
  PHOSPHORUS: 9.72 mg/dL
  POTASSIUM: 6.18 MEQ/L
  SODIUM: 150.5 MEQ/L
  TOTAL BILIRUBIN: 0.68 mg/dL
  TOTAL PROTEIN: 6.55 G/DL
[3]
  BASOPHIL: 0%
  EOSINOPHIL: 0%
  ERYTHROCYTE COUNT: 6.13 x10E6/uL
  HEMATOCRIT: 38.1%
  HEMOGLOBIN: 15.27 G/DL
  LEUKOCYTE COUNT: 13.67 x10E3/uL
  LYMPHOCYTE: 90%
  MEAN CORPUSCULAR HEMOGLOBIN: 24.93 pg
  MEAN CORPUSCULAR HEMOGLOBIN CONCENTRATION: 40.1 G/DL
  MEAN CORPUSCULAR VOLUME: 62.17 fL
  NEUTROPHIL: 7.67%
  PLATELET COUNT: 999.33 x10E3/uL
  ALANINE AMINOTRANSFERASE: 31.33 u/L
  ALBUMIN: 3.77 G/DL
  ALKALINE PHOSPHATASE: 390.33 u/L
  ASPARTATE AMINOTRANSFERASE: 54 u/L
  BLOOD UREA NITROGEN: 13.67 mg/dL
  CHLORIDE: 103.67 MEQ/L
  CHOLESTEROL: 59 mg/dL
  CREATINE PHOSPHOKINASE: 158.67 u/L
  CREATININE: 0.6 mg/dL
  GLUCOSE: 179 mg/dL
  PHOSPHORUS: 10.93 mg/dL
  POTASSIUM: 6.37 MEQ/L
  SODIUM: 148.67 MEQ/L
  TOTAL BILIRUBIN: 0.6 mg/dL
  TOTAL PROTEIN: 5.97 G/DL
[4]
  BASOPHIL: 0%
  EOSINOPHIL: 0.33%
  ERYTHROCYTE COUNT: 6.82 x10E6/uL
  HEMATOCRIT: 40.93%
  HEMOGLOBIN: 16.13 G/DL
  LEUKOCYTE COUNT: 11.33 x10E3/uL
  LYMPHOCYTE: 91.67%
  MEAN CORPUSCULAR HEMOGLOBIN: 23.67 pg
  MEAN CORPUSCULAR HEMOGLOBIN CONCENTRATION: 39.47 G/DL
  MEAN CORPUSCULAR VOLUME: 60 fL
  NEUTROPHIL: 6.67%
  PLATELET COUNT: 1104.33 x10E3/uL
  ALANINE AMINOTRANSFERASE: 28.33 u/L
  ALBUMIN: 4.03 G/DL
  ALKALINE PHOSPHATASE: 320.33 u/L
  ASPARTATE AMINOTRANSFERASE: 53.33 u/L
  BLOOD UREA NITROGEN: 15.33 mg/dL
  CHLORIDE: 106 MEQ/L
  CHOLESTEROL: 70 mg/dL
  CREATINE PHOSPHOKINASE: 145.33 u/L
  CREATININE: 0.63 mg/dL
  GLUCOSE: 170.67 mg/dL
  PHOSPHORUS: 10.97 mg/dL
  POTASSIUM: 6.6 MEQ/L
  SODIUM: 151.67 MEQ/L
  TOTAL BILIRUBIN: 0.7 mg/dL
  TOTAL PROTEIN: 6.6 G/DL
[5]
  BASOPHIL: 0%
  EOSINOPHIL: 0%
  ERYTHROCYTE COUNT: 5.99 x10E6/uL
  HEMATOCRIT: 36.13%
  HEMOGLOBIN: 14.37 G/DL
  LEUKOCYTE COUNT: 11.03 x10E3/uL
  LYMPHOCYTE: 90%
  MEAN CORPUSCULAR HEMOGLOBIN: 23.97 pg
  MEAN CORPUSCULAR HEMOGLOBIN CONCENTRATION: 39.77 G/DL
  MEAN CORPUSCULAR VOLUME: 60.27 fL
  NEUTROPHIL: 9%
  PLATELET COUNT: 1243 x10E3/uL
  ALANINE AMINOTRANSFERASE: 32 u/L
  ALBUMIN: 3.73 G/DL
  ALKALINE PHOSPHATASE: 332.67 u/L
  ASPARTATE AMINOTRANSFERASE: 58 u/L
  BLOOD UREA NITROGEN: 11.33 mg/dL
  CHLORIDE: 103.67 MEQ/L
  CHOLESTEROL: 65.67 mg/dL
  CREATINE PHOSPHOKINASE: 164.67 u/L
  CREATININE: 0.6 mg/dL
  GLUCOSE: 180.67 mg/dL
  PHOSPHORUS: 11.33 mg/dL
  POTASSIUM: 6.43 MEQ/L
  SODIUM: 148.33 MEQ/L
  TOTAL BILIRUBIN: 0.4 mg/dL
  TOTAL PROTEIN: 5.8 G/DL
[6]
  BASOPHIL: 0%
  EOSINOPHIL: 0.67%
  ERYTHROCYTE COUNT: 6.09 x10E6/uL
  HEMATOCRIT: 37.37%
  HEMOGLOBIN: 14.97 G/DL
  LEUKOCYTE COUNT: 13.13 x10E3/uL
  LYMPHOCYTE: 81.67%
  MEAN CORPUSCULAR HEMOGLOBIN: 24.6 pg
  MEAN CORPUSCULAR HEMOGLOBIN CONCENTRATION: 40.1 G/DL
  MEAN CORPUSCULAR VOLUME: 61.4 fL
  NEUTROPHIL: 13%
  PLATELET COUNT: 1107.33 x10E3/uL
  ALANINE AMINOTRANSFERASE: 33.33 u/L
  ALBUMIN: 3.8 G/DL
  ALKALINE PHOSPHATASE: 344.67 u/L
  ASPARTATE AMINOTRANSFERASE: 57.33 u/L
  BLOOD UREA NITROGEN: 15.67 mg/dL
  CHLORIDE: 102 MEQ/L
  CHOLESTEROL: 70.33 mg/dL
  CREATINE PHOSPHOKINASE: 148.33 u/L
  CREATININE: 0.53 mg/dL
  GLUCOSE: 178.67 mg/dL
  PHOSPHORUS: 10.7 mg/dL
  POTASSIUM: 6.43 MEQ/L
  SODIUM: 148.33 MEQ/L
  TOTAL BILIRUBIN: 0.47 mg/dL
  TOTAL PROTEIN: 6.07 G/DL
